Data from PubChem BioAssay (NCI).
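Protocol summary: plate cells (96-well), add compound at 5 concentrations, incubate 48 h, interpolate endpoints linearly. TGI is the concentration that stops growth completely.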

Key:
Assay in all cases: NCI tumour cell line growth inhibition, 48 h
[1] = tested on: SR leukemia
[2] = tested on: NCI/ADR-RES ovarian
[3] = tested on: NCI-H460 lung
[4] = tested on: SK-MEL-28 melanoma
[5] = tested on: SF-539 CNS
[6] = tested on: SK-MEL-2 melanoma
[7] = tested on: RPMI-8226 leukemia
[8] = tested on: ACHN renal
[9] = tested on: OVCAR-4 ovarian
[10] = tested on: HCT-15 colon
[11] = tested on: UACC-62 melanoma
[12] = tested on: SNB-75 CNS
[13] = tested on: HS 578T breast
[14] = tested on: COLO 205 colon
[15] = tested on: IGROV1 ovarian
[16] = tested on: T-47D breast
[17] = tested on: OVCAR-5 ovarian
[18] = tested on: A498 renal
[19] = tested on: HOP-62 NSCLC
[20] = tested on: NCI-H226 lung

COc1ccc(C(SCC(N)C(=O)O)(c2ccc(OC)cc2)c2ccc(OC)cc2)cc1 (stereo not given)
TGI [1]: > 31.6 µM | TGI [2]: 19.4 µM | TGI [3]: 17.3 µM | TGI [4]: 16.8 µM | TGI [5]: 17.6 µM | TGI [6]: 18.4 µM | TGI [7]: > 31.6 µM | TGI [8]: 18.6 µM | TGI [9]: 27.7 µM | TGI [10]: 18.1 µM | TGI [11]: 15.7 µM | TGI [12]: 19.4 µM | TGI [13]: 19.5 µM | TGI [14]: 17 µM | TGI [15]: 20.2 µM | TGI [16]: 21.4 µM | TGI [17]: 20.7 µM | TGI [18]: 22.7 µM | TGI [19]: 17.8 µM | TGI [20]: 18.3 µM

COC(=O)/C=C1/OC(c2ccc(C)cc2)=C(Cl)C1=O
TGI [1]: 9.06 µM | TGI [2]: 56.1 µM | TGI [3]: 51 µM | TGI [4]: 30.9 µM | TGI [5]: 35.5 µM | TGI [6]: 34.3 µM | TGI [7]: 14.4 µM | TGI [8]: 30.4 µM | TGI [9]: 27.5 µM | TGI [10]: 26.4 µM | TGI [11]: 36.9 µM | TGI [12]: 35.5 µM | TGI [13]: 68.9 µM | TGI [14]: 23.7 µM | TGI [15]: 34.4 µM | TGI [16]: 52.1 µM | TGI [17]: 35 µM | TGI [18]: 33.6 µM | TGI [19]: 38.8 µM | TGI [20]: 47.1 µM

N#CC1(C#N)C(c2ccccc2)C=CC(c2ccc([N+](=O)[O-])cc2)C1(C#N)C#N (stereo not given)
TGI [1]: > 23.6 µM | TGI [2]: > 74.4 µM | TGI [3]: > 100 µM | TGI [4]: 35.5 µM | TGI [5]: 8.38 µM | TGI [6]: 31.6 µM | TGI [7]: > 25.6 µM | TGI [8]: 9.54 µM | TGI [9]: 30.5 µM | TGI [10]: 16.5 µM | TGI [11]: 24.8 µM | TGI [12]: 47.7 µM | TGI [13]: > 59.9 µM | TGI [14]: 3.13 µM | TGI [15]: 27.8 µM | TGI [16]: 7.27 µM | TGI [17]: 31.9 µM | TGI [18]: 32.1 µM | TGI [19]: 31.7 µM | TGI [20]: > 57.5 µM

O=C(Nc1ccc(Cl)cc1)NS(=O)(=O)c1c(-c2ccccc2)oc2ccccc2c1=O
TGI [1]: > 100 µM | TGI [2]: > 100 µM | TGI [3]: > 100 µM | TGI [4]: > 100 µM | TGI [5]: > 100 µM | TGI [6]: > 100 µM | TGI [7]: > 100 µM | TGI [8]: > 100 µM | TGI [9]: > 100 µM | TGI [10]: > 100 µM | TGI [11]: 13.6 µM | TGI [12]: > 100 µM | TGI [13]: > 100 µM | TGI [14]: > 100 µM | TGI [15]: > 100 µM | TGI [16]: > 100 µM | TGI [17]: > 100 µM | TGI [18]: > 100 µM | TGI [19]: > 100 µM | TGI [20]: > 100 µM
